Row | melting point | SMILES
1 | 196 to 198 °C | O=C(O)c1ccc(N(Cc2ccc(Cl)c(Cl)c2)c2nc(-c3cc(Cl)ccc3OCc3ccccc3)cs2)cc1 [Example 167, 4-(N-(4-(2-benzyloxy-5-chlorophenyl)-2-thiazolyl)-N-(3,4-dichlorobenzyl)amino)benzoic acid]
2 | 143 to 149 °C | CC(C)CCN(c1ccc(C(=O)O)cc1)c1nc(-c2cc(Cl)ccc2OCc2ccccc2)cs1 [Example 168, 4-(N-(4-(2-benzyloxy-5-chlorophenyl)-2-thiazolyl)-N-(3-methylbutyl)amino)benzoic acid]
3 | 132 to 137 °C | COc1ccc(OCc2ccccc2)c(-c2csc(N(CCC3CCCCC3)c3ccc(C(=O)O)cc3)n2)c1 [Example 169, 4-(N-(4-(2-benzyloxy-5-methoxyphenyl)-2-thiazolyl)-N-(2-cyclohexylethyl)amino)benzoic acid]
4 | 104 to 107 °C | COc1ccc(OCc2ccc(C(F)(F)F)cc2)c(-c2csc(N(CCC3CCCCC3)c3ccc(C(=O)O)cc3)n2)c1 [Example 170, 4-(N-(2-cyclohexylethyl)-N-(4-(5-methoxy-2-(4-trifluoromethylbenzyloxy)phenyl)-2-thiazolyl)amino)benzoic acid]
5 | 111 to 114 °C | COc1ccc(OCc2ccc(C(F)(F)F)cc2)c(-c2csc(Nc3ccc(C(=O)O)cc3OCCC3CCCCC3)n2)c1 [Example 171, 3-(2-cyclohexylethoxy)-4-(4-(5-methoxy-2-(4-trifluoromethylbenzyloxy)phenyl)-2-thiazolylamino)benzoic acid]
6 | 170 to 171 °C | O=C(O)c1cccc(N(CCC2CCCCC2)c2nc(-c3cc(Cl)ccc3OCc3ccccc3)cs2)c1 [Example 172, 3-(N-(4-(2-benzyloxy-5-chlorophenyl)-2-thiazolyl)-N-(2-cyclohexylethyl)amino)benzoic acid]
7 | 215 to 218 °C | CC(C)c1ccc(COc2ccc(Cl)cc2-c2csc(Nc3ccc(C(=O)O)cc3)n2)cc1 [Example 173, 4-(4-(5-chloro-2-(4-isopropylbenzyloxy)phenyl)-2-thiazolylamino)benzoic acid]
8 | 125 to 130 °C | O=C(O)c1ccc(N(CCC2CCCCC2)c2nc(-c3cc(F)ccc3OCc3ccccc3)cs2)cc1 [Example 174, 4-(N-(4-(2-benzyloxy-5-fluorophenyl)-2-thiazolyl)-N-(2-cyclohexylethyl)amino)benzoic acid]
9 | 148 to 150 °C | Cc1ccc(OCc2ccccc2)c(-c2csc(N(CCC3CCCCC3)c3ccc(C(=O)O)cc3)n2)c1 [Example 175, 4-(N-(4-(2-benzyloxy-5-methylphenyl)-2-thiazolyl)-N-(2-cyclohexylethyl)amino)benzoic acid]
10 | 190 to 192 °C | CC(C)c1ccc(COc2ccc(Cl)cc2-c2csc(N(CCC3CCCCC3)c3ccc(C(=O)O)cc3)n2)cc1 [Example 176, 4-(N-(4-(5-chloro-2-(4-isopropylbenzyloxy)phenyl)-2-thiazolyl)-N-(2-cyclohexylethyl)amino)benzoic acid]
11 | 170 to 175 °C | O=C(O)c1ccc(N(CCC2CCCCC2)c2nc(-c3cc(Cl)ccc3OCc3ccc(C(F)(F)F)cc3)cs2)cc1 [Example 177, 4-(N-(4-(5-chloro-2-(4-trifluoromethylbenzyloxy)phenyl)-2-thiazolyl)-N-(2-cyclohexylethyl)amino)benzoic acid]
12 | 195 to 198 °C | O=C(O)c1ccc(N(CCC2CCCCC2)c2nc(-c3cc(Cl)ccc3OCc3ccc(Cl)c(Cl)c3)cs2)cc1 [Example 178, 4-(N-(4-(5-chloro-2-(3,4-dichlorobenzyloxy)phenyl)-2-thiazolyl)-N-(2-cyclohexylethyl)amino)benzoic acid]
13 | 134 to 140 °C | O=C(O)c1ccc(Nc2nc(-c3cc(Cl)ccc3OCc3ccc(C(F)(F)F)cc3)cs2)c(OCCC2CCCCC2)c1 [Example 179, 4-(4-(5-chloro-2-(4-trifluoromethylbenzyloxy)phenyl)-2-thiazolylamino)-3-(2-cyclohexylethoxy)benzoic acid]
14 | 227 to 230 °C | COc1ccc(OCc2ccc(C(F)(F)F)cc2)c(-c2csc(Nc3ccc(C(=O)O)cc3OCc3ccccc3)n2)c1 [Example 180, 3-benzyloxy-4-(4-(5-methoxy-2-(4-trifluoromethylbenzyloxy)phenyl)-2-thiazolylamino)benzoic acid]
15 | 98 to 100 °C | O=C(O)c1cccc(N(CC2CCCCC2)c2nc(-c3cc(Cl)ccc3OCc3ccccc3)cs2)c1 [Example 181, 3-(N-(4-(2-benzyloxy-5-chlorophenyl)-2-thiazolyl)-N-cyclohexylmethylamino)benzoic acid]
16 | 216 to 218 °C | CCCCN(c1ccc(C(=O)O)cc1)c1nc(-c2cc(Cl)ccc2OCc2ccc(C(F)(F)F)cc2)cs1 [Example 182, 4-(N-butyl-N-(4-(5-chloro-2-(4-trifluoromethylbenzyloxy)phenyl)-2-thiazolyl)amino)benzoic acid]

Row | melting point | SMILES
17 | 230 °C | CC(C)N(c1ccc(C(=O)O)cc1)c1nc(-c2nc3ccc(OCc4ccc(Cl)c(Cl)c4)cc3o2)cs1 [Example 183, 4-(N-(4-(6-(3,4-dichlorobenzyloxy)-2-benzooxazolyl)-2-thiazolyl)-N-isopropylamino)benzoic acid]
18 | 195 to 197 °C | O=C(O)c1ccc(N(CCC2CCCCC2)c2nc(-c3nc4ccc(OCc5ccc(Cl)c(Cl)c5)cc4o3)cs2)cc1 [Example 184, 4-(N-(2-cyclohexylethyl)-N-(4-(6-(3,4-dichlorobenzyloxy)-2-benzooxazolyl)-2-thiazolyl)amino)benzoic acid]
19 | 182 to 189 °C | O=C(O)c1ccc(N(CC2CCCCC2)c2nc(-c3nc4ccc(OCc5ccc(Cl)c(Cl)c5)cc4o3)cs2)cc1 [Example 187, 4-(N-cyclohexylmethyl-N-(4-(6-(3,4-dichlorobenzyloxy)-2-benzooxazolyl)-2-thiazolyl)amino)benzoic acid]
20 | 230 °C (dec.) | CC(C)(C)c1ccc(COc2ccc3nc(-c4csc(N(CC5CCCCC5)c5ccc(C(=O)O)cc5)n4)oc3c2)cc1 [Example 188, 4-(N-(4-(6-(4-tert-butylbenzyloxy)-2-benzooxazolyl)-2-thiazolyl)-N-cyclohexylmethylamino)benzoic acid]
21 | 213 to 214 °C | O=C(O)c1ccc(N(CC2CCCCC2)c2nc(-c3nc4ccc(OCc5ccc(C(F)(F)F)cc5C(F)(F)F)cc4o3)cs2)cc1 [Example 189, 4-(N-(4-(6-(2,4-bis(trifluoromethyl)benzyloxy)-2-benzooxazolyl)-2-thiazolyl)-N-cyclohexylmethylamino)benzoic acid]
22 | 228 to 230 °C | O=C(O)c1ccc(N(CC2CCCCC2)c2nc(-c3nc4ccc(OCc5ccc(F)c(F)c5)cc4o3)cs2)cc1 [Example 190, 4-(N-cyclohexylmethyl-N-(4-(6-(3,4-difluorobenzyloxy)-2-benzooxazolyl)-2-thiazolyl)amino)benzoic acid]
23 | 160 to 162 °C | COc1cc(COc2ccc3nc(-c4csc(N(CC5CCCCC5)c5ccc(C(=O)O)cc5)n4)oc3c2)cc(OC)c1 [Example 191, 4-(N-cyclohexylmethyl-N-(4-(6-(3,5-dimethoxybenzyloxy)-2-benzooxazolyl)-2-thiazolyl)amino)benzoic acid]
24 | 180 to 181 °C | CN(Cc1ccc([C@H]2CC[C@@H](O)CC2)cc1)c1ccc(-c2csc(N(C)Cc3ccc(C(=O)O)cc3)n2)cc1 [Example 194, cis-4-((N-(4-(4-(N-(4-(4-hydroxycyclohexyl)benzyl)-N-methylamino)phenyl)-2-thiazolyl)-N-methylamino)methyl)benzoic acid]
25 | 183 °C (dec.) | CN(Cc1ccc(C2CCCCC2)cc1)c1ccc(-c2csc(N(C)Cc3cccc(C(=O)O)c3)n2)cc1 [Example 204, 3-((N-(4-(4-(N-(4-cyclohexylbenzyl)-N-methylamino)phenyl)-2-thiazolyl)-N-methylamino)methyl)benzoic acid]
26 | 189 to 191 °C | CN(Cc1ccc(C2CCCC(=O)C2)cc1)c1ccc(-c2csc(N(C)Cc3ccc(C(=O)O)cc3)n2)cc1 (centres unmarked) [Example 207, 4-((N-methyl-N-(4-(4-(N-methyl-N-(4-(3-oxocyclohexyl)benzyl)amino)phenyl)-2-thiazolyl)amino)methyl)benzoic acid]
27 | 225 to 227 °C | CN(Cc1ccc(C2CCOCC2)cc1)c1ccc(-c2csc(N(C)Cc3ccc(C(=O)O)cc3)n2)cc1 [Example 210, 4-((N-methyl-N-(4-(4-(N-methyl-N-(4-(tetrahydropyran-4-yl)benzyl)amino)phenyl)-2-thiazolyl)amino)methyl)benzoic acid]
28 | 208 to 210 °C | CC(=O)N1CCC(c2ccc(CN(C)c3ccc(-c4csc(N(C)Cc5ccc(C(=O)O)cc5)n4)cc3)cc2)CC1 [Example 211, 4-((N-(4-(4-(N-(4-(1-acetylpiperidin-4-yl)benzyl)-N-methylamino)phenyl)-2-thiazolyl)-N-methylamino)methyl)benzoic acid]
29 | 181 to 183 °C | CN(Cc1ccc(C2CCCC2)cc1)c1ccc(-c2csc(N(C)Cc3ccc(C(=O)O)cc3)n2)cc1 [Example 212, 4-((N-(4-(4-(N-(4-cyclopentylbenzyl)-N-methylamino)phenyl)-2-thiazolyl)-N-methylamino)methyl)benzoic acid]
30 | 191 to 193 °C | CN(Cc1ccc(C(=O)O)cc1)c1nc(-c2ccc(N(C)C[C@H]3CC[C@H](c4ccccc4)CC3)cc2)cs1 [Example 213, trans-4-((N-methyl-N-(4-(4-(N-methyl-N-(4-phenylcyclohexylmethyl)amino)phenyl)-2-thiazolyl)amino)methyl)benzoic acid]
31 | 230 °C | CN(Cc1ccc(C2CCC(C)(C)CC2)cc1)c1ccc(-c2csc(N(C)Cc3ccc(C(=O)[O-])cc3)n2)cc1.[Na+] [Example 216, sodium 4-((N-(4-(4-(N-(4-(4,4-dimethylcyclohexyl)benzyl)-N-methylamino)phenyl)-2-thiazolyl)-N-methylamino)methyl)benzoate]
32 | 117 to 119 °C | O=C(O)c1ccc(CN(CC2CCCCC2)c2nc(-c3nc4ccc(OCc5ccccc5)cc4o3)cs2)cc1 [Example 220, 4-((N-(4-(6-benzyloxy-2-benzooxazolyl)-2-thiazolyl)-N-cyclohexylmethylamino)methyl)benzoic acid]

Reference: patent US7163952B2, “Azole compound and medicinal use thereof” (Japan Tobacco Inc., priority 2001, dated 2007)
